Results on two compounds are retold here after patent US11254671B2, “Chemical compounds” (GLAXOSMITHKLINE INTELLECTUAL PROPERTY DEVELOPMENT LIMITED, priority 2017, dated 2022).

Structures are written as SMILES.

One assay has as its target T1, mTOR (Homo sapiens, UniProt P42345).
T1 construct: capturing of endogenously expressed target proteins from cell extracts by a bead-immobilized capturing ligand; endogenous in cells; host or cells: HuT-78 cells (ECACC 88041901), cell lysate
Kind of assay: mTOR kinobeads assay (competition-binding assay). The note with it: HuT-78 cell extract, endogenously expressed mTOR, bead-immobilized capturing ligand; mean of multiple experiments; read-out: mean pIC50, affinity for mTOR (converted). On the procedure: The affinity of test compounds for mTOR was determined in the mTOR kinobeads assay. This is a competition-binding assay based on the capturing of endogenously expressed target proteins from cell extracts by a bead-immobilized capturing ligand in presence of the test compound.
HuT-78 cells (European Collection of Authenticated Cell Cultures, 88041901) were cultured according to vendor's instructions. Frozen cell pellets were homogenized in 3× pellet volumes lysis buffer (50 mM Tris-HCl, 0.4% (v/v) Igepal-CA630, 5% glycerol, 150 mM NaCl, 1.5 mMMgCl2, 25 mM NaF, 1 mM sodium vanadate, 1 mM DTT, pH 7.5, supplemented with EDTA-free protease inhibitor tablet (Roche)). The sample was dispersed using a Dounce homogenizer, kept rotating for 30 min at 4° C., and centrifuged for 10 min at 20 000 g at 4° C. The supernatant was centrifuged again for 1 h at 145 000 g. The protein concentration was determined by Bradford assay (BioRad), aliquots were snap frozen in liquid nitrogen and stored at −80° C.
The capturing matrices were generated by derivatizing N-hydroxysuccinimide (NHS) activated Sepharose 4 beads (GE Healthcare) with the functionalized ligands Compound A and Compound C at a ligand density of 5 mM. Remaining NHS-groups were blocked with ethanolamine.
For the mTOR kinobeads assay the matrices were combined in a 1:1 ratio and equilibrated in DP buffer (50 mM Tris-HCl (pH 7.5), 0.4% (v/v) Igepal-CA630, 5% (v/v) glycerol, 150 mM NaCl, 1.5 mM MgCl2, 25 mM NaF, 1 mM Na3VO4, 1 mM dithiothreitol). All steps of the mTOR kinobeads assay were performed at 4° C. or on ice. The cell lysate was diluted with DP buffer to a final concentration of 5 mg/ml and a final detergent concentration of 0.4% (v/v) Igepal-CA630. For the assay 250 μg cell lysate and 2.5 μl capturing matrix per well (final assay volume: 75 μl) were incubated in the presence of test compounds in a 384-well filter plate (MultiScreenHTS HV Filter Plate, 0.45 μm, MZHVNOW50, Merck Millipore). Each plate contained 16 positive (100 μM Compound B) and 16 negative (2% v/v DMSO) control wells. Compounds were tested in a concentration-response applying 1:3 or 1:4 dilution steps for in total 11 data points. DMSO concentration was 2% (v/v). After 2 h incubation on an overhead shaker (Roto-Shake Genie, Scientific Industries Inc.) at 4° C. the non-bound fraction was removed by washing the beads with DP buffer. Proteins retained on the beads were eluted in SDS sample buffer (200 mM Tris (pH 7.4), 250 mM Trizma Base, 4% (w/v) SDS, 20% (v/v) glycerol, 0.01% (w/v) bromophenol blue, 50 mM dithiothreitol) into a collection plate (384 well polypropylene microplate, V-shape, Greiner, 781 280). Eluates were spotted on nitrocellulose membranes (400 nl per spot) using an automated pin-tool liquid transfer (Biomek FX, Beckman). After drying, the membranes were rehydrated in 20% (v/v) ethanol and blocked by incubation with Odyssey blocking buffer (LICOR, 927-40000) for 1 h at room temperature. Blocked membranes were incubated overnight at 25° C. with Odyssey blocking buffer supplemented with a specific anti-mTOR antibody (Cell Signaling, 2972; 1:500) and 0.4% TWEEN-20. Then the membranes were washed in PBST buffer and incubated for 60 minutes at room temperature with the detection antibody (IRDye™ labelled antibody from LI-COR) diluted in Odyssey blocking buffer (LICOR 927-40000) containing 0.2% TWEEN-20. Then the membranes were washed with PBST and finally rinsed twice with PBS buffer to remove residual Tween-20. The membranes were then scanned with the Odyssey® Infrared Imaging System (LI-COR Biosciences). Fluorescence signals were recorded and analyzed according to the instructions of the manufacturer. Concentration response curves were computed with the software Activity Base. All data were normalized to the mean of 16 high (negative control) and 16 low (positive control) control wells on each plate. […]

Assay [1] concerns phosphorylated Akt at serine 473 (pAKTs473) in primary human lung fibroblasts. As to the kind of experiment: Highthroughput phosphorylated Akt (Ser473) in vitro immunoassay (MSD). Format: cell-based. Conditions: Fibroblast, 1 h compound, PDGF-BB 10 ng/ml for 10 min, mean of multiple experiments, read-out: mean pIC50, inhibition of pAkt (Ser473) (converted). The text has this:
Highthroughput Phosphorylated Akt (Ser473) In Vitro Immunoassay
Immunoassay to measure effect of test compounds on phosphorylated Akt at serine 473 (pAKTs473) in primary human lung fibroblasts (Lonza Group Ltd, Basel, Switzerland, Catalogue No. CC-2512) using the MesoScale Discovery (MSD) platform to quantify levels of total Akt and pAKTser473.
Human lung fibroblasts were routinely maintained in fibroblast basal medium supplemented with 2% foetal bovine serum (FBS), 0.1% human fibroblast growth factor (FGF)-B, 0.1% insulin, 0.1% GA-100 (Lonza Group Ltd, Basel, Switzerland, Catalogue No. CC-3132) at 37° C. in 5% CO2 according to the manufacturer's protocol.
For the assay, cells were harvested using Trypsin/EDTA, (Lonza Group Ltd, Basel, Switzerland, Catalogue No. CC-5012), at working concentration of 0.025%, resuspended to give 3×10^5 cells/ml and 50 ul/well seeded into 384-well plates (Greiner Group, Kremsmunster, Austria, Catalogue No. 781091) in media containing 0.4% FBS and incubated o/n at 37° C. in 5% CO2.
Test compounds were dissolved in 100% DMSO to give 10 mM stock solutions and serially diluted to generate an 11-point concentration response curve. Compound were further diluted by […] into 384-well V-bottom polypropylene plates (Greiner Group, Kremsmunster, Austria, Catalogue No. 781280) with media containing 0.4% FBS to give 50 μM top compound concentration in 0.5% DMSO.
Compounds were transferred to 384-well plates contacting cells (0.1% DMSO final) and incubated for 1 h at 37° C. in 5% CO2, prior to stimulation with platelet-derived growth factor (PDGF)-BB (R&D Systems, Catalogue No. 220-BB) at 10 ng/ml (final) for 10 min at RT. Cell assay plates were incubated on ice and treated with lysis buffer (Cell Signalling Technology, Catalogue No. 9806) containing protease and phosphatase inhibitors (Thermo Scientific, Catalogue No. 78444) followed by shaking for 30 min at 4° C.
MSD plates (MSD, MA6000 384-well GAR plate, Catalogue No. L21RA-2) were blocked with blocking buffer containing TBS (MSD, Cat. No. R61TX-1) with 0.5% bovine serum albumin (BSA) (Sigma Aldrich, Cat. No. A7906), 0.1% tween-20 (Sigma Aldrich, Catalogue No. P2287) and coated with rabbit-anti-human pAkt (s473) ab (Cell Signalling Technology, Catalogue No. CST #4060) at RT with shaking, followed by washing (×3) with 1×TBS wash reagent containing 0.1% Tween-20. Cell lysates (30 ul) were added and MSD plates centrifuged at 1000 rpm at 4° C. o/n.
Plates were washed with 1×TBS wash buffer (×3), prior to addition of mouse-anti-human-total Akt ab (1 mg/ml) (Upstate (Milipore), Catalogue No. 05-591) in blocking buffer and shaken at RT for 1 h. After washing with 1×TBS wash buffer (×3), plates were incubated with goat-anti-mouse SULFO-TAG detection ab (MSD, Catalogue No. R32AC-1) (1:500 in blocking buffer) for 1 h at RT. Plates were washed with 1×TBS (×3) and read buffer (2×) (MSD, Catalogue No. R92TC-1) added before detecting electrochemiluminescence (MSD Sector Imager 6000).
Data analysis was performed by determining % inhibition values for test compounds relative to the minimum (+PDGF-BB stimulation) and maximum responses (no PDGF-BB stimulation) with non-linear regression analysis to determine IC50 values for test compounds.

In assay [2] the test system is type I collagen deposition in primary lung fibroblasts. As to the kind of experiment: Highthroughput type I collagen deposition (scar-in-a-jar) high content screening assay. In kind it is cell-based. Conditions: Homo sapiens, Primary lung fibroblast, 72 h, human pulmonary fibroblasts, TGF-β 1 ng/ml, Ficoll crowding, mean of multiple experiments, read-out: mean pIC50, inhibition of type I collagen deposition (converted). On the procedure:
Example 53 Highthroughput Type I Collagen Deposition (Scar-in-a-Jar) High Content Screening Assay
Highthroughput, cellular type I collagen deposition was measured by adapting a published method; scar-in-a-jar (Chen et al., 2009) to primary lung fibroblasts derived from human tissue and combining with high content analysis to permit fluorescent quantification of collagen deposited in the extracellular matrix (ECM). The human biological samples were sourced ethically and their research use was in accord with the terms of the informed consents
Test compounds were dissolved in 100% DMSO to give 10 mM (stocks) and further diluted to give half log dilutions to generate an 11 point concentration response curve. 1 ul was transferred to 384-well plates (Greiner Group, Kremsmunster, Austria, Catalogue No Greine 781280r).
Human pulmonary fibroblasts were maintained in DMEM media (Gibco, Catalogue No 21969) supplemented with 4 mM L-glutamine (Gibco Catalogue No 25030-024) and 10% heat inactivated FBS (Gibco, Catalogue No 10099-141) at 37° C. in 10% CO2. Cells were harvested and resuspended at 4×10^6 cells/ml in a T175 cell culture flask (BD Falcom, Catalogue No: 353112) containing 50 mL of culture media. After 4 days 37° C. in 10% CO2, cells were harvested and seeded at 4000 cells per well (50 μL/well) into 384-well plates (BD Falcon, Catalogue No 353962Greiner) in assay media (0.4% heat inactivated FBS, 4 mM L-glutamine). Plates were sealed with breathable seals (Sigma, Catalogue No. BEM-1). Assay plates were incubated for 72 h at 37° C. in 10% CO2.
Assay media was supplemented with 112.5 mg/ml Ficoll 70 (Sigma, Catalogue No F2878), 75 mg/ml Ficoll 400 (Sigma, Catalogue No F4375) and 50 μg/ml ascorbic acid (Sigma, Catalogue No A8960). 30 μL assay media were added to 1 μl compound (37 μM compound concentration in 1% DMSO). Diluted compounds (10 μL) were transferred to plates containing cells and incubated for 3 h at 37° C. in 10% CO2. Transforming growth factor (TGF)-β (R&D systems, Catalogue No 100-B/CF) was reconstituted to give 10 μg/mL (stock) and further diluted in assay media containing Ficoll and ascorbic acid (1 in 3333). TGF-β was added to cell plates (1 ng/ml final) and cells incubated for 72 h at 37° C. in 10% CO2.
Media was aspirated from cells and 30 μL/well 100% ice-cold methanol added and incubated at RT for 5 min to fix cells. Methanol was aspirated and cells washed with PBS (3×). To block and permeabilise, cells were incubated with PBS containing 1% BSA and 0.1% Triton X 100 for 20 min, followed by PBS wash (3×). Cells were incubated with mouse anti human type I collagen monoclonal antibody (Sigma, Catalogue No C2456) diluted 1:1000 in PBS for 24 h at 4° C. Cells were washed with PBS containing 0.1% Tween-20 (3×) and incubated with secondary alexa fluor 488 goat-anti-mouse antibody (Invitrogen, Catalogue No A11001, 1 in 500 in PBS) and Hoechst 33342 (Sigma, Catalogue No H21492), 1 in 1000 in PBS) for 1 h at RT, prior to washing with PBS containing 0.1% Tween (×4).
Type I collagen immunoreactivity was detected using the INCell 2000 Analyzer (GE Healthcare, INcell 2000) set to excitation and emission wavelengths for DAPI and FITC with laser focus and exposure adjusted to appropriate levels. Images were imported and analysed using Columbus software (Perkin Elmer) and computational algorithms to quantify “total collagen area” and “cell count”.
Data analysis was performed by determining % inhibition values for test compounds relative to the minimum (media only) and maximum responses (TGF-βstimulation) with non-linear regression analysis to determine IC50 values for test compounds.

For `CNCc1cc2nc(-c3cc(CS(C)(=O)=O)cc(N4C5CCC4COC5)n3)ccc2[nH]1` [Example 47, ({5-[4-(methanesulfonylmethyl)-6-{3-oxa-8-azabicyclo[3.2.1]octan-8-yl}pyridin-2-yl]-1H-pyrrolo[3,2-b]pyridin-2-yl}methyl)(methyl)amine], the IC50 at mTOR is 2.51 to 316 nM; in assay [1], 3.16 to 316 nM.

For `CCCC1COCCN1c1cc(CS(C)(=O)=O)cc(-c2ccc3[nH]c(CNC)cc3n2)n1` (stereo not shown) [Example 48, ({5-[4-(methanesulfonylmethyl)-6-(3-propylmorpholin-4-yl)pyridin-2-yl]-1H-pyrrolo[3,2-b]pyridin-2-yl}methyl)(methyl)amine], the IC50 in assay [1] is 3.16 to 316 nM; in assay [2], 39.8 to 1000 nM.
